Biological target: T1, CDK4/Cyclin D1 (Homo sapiens, UniProt P11802)
T1 construct: made in house; host or cells: SF21 insect cells (Spodoptera frugiperda), baculovirus co-infection, vector pVL1393
Test: CDK Inhibition Assay (Scintillation Proximity Assay, GST-Retinoblastoma substrate)
Type: biochemical
Conditions: in-vitro kinase assay, incorporation of [γ-33-P]-ATP into GST-Rb, 60 minutes at room temperature; read-out: CDK4 inhibitory activity IC50
Protocol: The compounds were tested in an in vitro kinase assay in 96 well format using Scintillation Proximity Assay (SPA—obtained from Amersham) for measuring incorporation of [γ-33-P]-Adenosine Triphosphate into a test substrate (GST-Retinoblastoma). In each well was placed the compound to be tested (diluted in DMSO and water to correct, concentrations) and in control wells either p 16 as an inhibitor control or DMSO as a positive control. Approximately 0.5 μl of CDK4/Cyclin D1 partially-purified enzyme (amount dependent on enzyme activity) diluted in 25 μl incubation buffer was added to each well then 20 μl of GST-Rb/ATP/ATP33 mixture (containing 0.54 μg GST-Rb and 0.2 μM ATP and 0.14 μCi [γ-33-P]-Adenosine Triphosphate), and the resulting mixture shaken gently, then incubated at room temperature for 60 minutes. To each well was then added 150 μL stop solution containing (0.8 mg/well of Protein A-PVT SPA bead (Amersham)), 20 pM/well of Anti-Glutathione Transferase, Rabbit IgG (obtained from Molecular Probes), 61 mM EDTA and 50 mM HEPES pH 7.5 containing 0.05% sodium azide. The plates were sealed with Topseal-S plate sealers, left for two hours then spun at 2500 rpm, 1124×g., for 5 minutes. The plates were read on a Topcount for 30 seconds per well. […]

T1 sequence (P11802 whole entry): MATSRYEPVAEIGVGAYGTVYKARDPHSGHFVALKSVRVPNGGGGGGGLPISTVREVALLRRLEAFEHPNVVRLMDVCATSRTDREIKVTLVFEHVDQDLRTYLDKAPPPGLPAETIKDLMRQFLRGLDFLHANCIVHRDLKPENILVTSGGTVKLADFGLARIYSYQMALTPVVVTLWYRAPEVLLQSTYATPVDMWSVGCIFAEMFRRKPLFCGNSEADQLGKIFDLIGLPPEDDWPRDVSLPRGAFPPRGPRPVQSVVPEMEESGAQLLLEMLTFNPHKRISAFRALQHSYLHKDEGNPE
T1 sequence (P24385 whole entry partner): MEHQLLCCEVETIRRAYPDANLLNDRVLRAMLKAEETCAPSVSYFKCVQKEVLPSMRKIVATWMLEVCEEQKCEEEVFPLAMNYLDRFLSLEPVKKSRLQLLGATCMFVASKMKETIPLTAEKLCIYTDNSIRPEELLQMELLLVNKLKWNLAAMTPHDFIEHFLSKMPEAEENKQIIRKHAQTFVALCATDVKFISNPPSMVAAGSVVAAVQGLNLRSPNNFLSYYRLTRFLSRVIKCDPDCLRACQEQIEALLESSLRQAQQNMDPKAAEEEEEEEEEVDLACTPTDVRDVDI

| SMILES | IC50 |
| --- | --- |
| Cc1ccc(N(CC#N)c2cc(Nc3ccc(OCC(O)CN(C)C)cc3)ncn2)c(Br)c1 (centres unmarked) [Example 1, 4-{4-[3-(N,N-Dimethyl)amino-2-hydroxyproroxy]anilino}-6-(N-cyanomethyl-2-bromo-4-methylanilino)pyrimidine] | 0.11 µM |
| Cc1ccc(Cl)c(N(CC#N)c2cc(Nc3ccc(OCC(O)CN(C)C)cc3)ncn2)c1 (centres unmarked) [Example 2, 4-{4-[3-(N,N-Dimethyl)amino-2-hydroxylropoxy]anilino}-6-(N-cyanomethyl-2-chloro-5-methylanilino)pyrimidine] | 0.07 µM |

Reference: patent US6632820B1, “Pyrimidine compounds” (AstraZeneca AB, priority 1998, dated 2003)
